Measured values: patent US20090124636A1, “CHEMICAL COMPOUNDS” (priority 2006, published 2009)
Where two headings read alike, the source gives them in different places.

Tested on: HIV-1 fusion
Assay: cells
Type: cell-based
Description: The gp160 induced cell-cell fusion assay uses a HeLa P4 cell line and a CHO-Tat10 cell line.
The HeLa P4 cell line expresses CCR5 and CD4 and has been transfected with HIV-1 LTR-β-Galactosidase. The media for this cell line is Dulbecco modified eagle's medium (D-MEM) (without L-glutamine) containing 10% foetal calf serum (FCS), 2 mM L-glutamine, penicillin/streptomycin (Pen/Strep; 100 U/mL penicillin+[…] streptomycin), and 1 μg/ml puromycin.
The CHO cell line is a Tat (transcriptional trans activator)-expressing clone from a CHO JRR17.1 cell line that has been transfected with pTat puro plasmid. The media for this cell line is rich medium for mammalian cell culture originally developed at Roswell Park Memorial Institute RPMI1640 (without L-glutamine) containing 10% FCS, 2 mM L-glutamine, 0.5 mg/ml Hygromycin B and 12 μg/ml puromycin. The CHO JRR17.1 line expresses gp160 (JRFL) and is a clone that has been selected for its ability to fuse with a CCR5/CD4 expressing cell line.
Upon cell fusion, Tat present in the CHO cell is able to transactivate the HIV-1 long terminal repeat (LTR) present in the HeLa cell leading to the expression of the β-Galactosidase enzyme. This expression is then measured using a Fluor Ace™ β-Galactosidase reporter assay kit (Bio-Rad cat no. 170-3150). This kit is a quantitative fluorescent assay that determines the level of expression of β-galactosidase using 4-methylumbelliferyl-galactopyranoside (MUG) as substrate. β-Galactosidase hydrolyses the fluorogenic substrate resulting in release of the fluorescent molecule 4-methylumbelliferone (4 MU). Fluorescence of 4-methylumbelliferone is then measured on a fluorometer using an excitation wavelength of 360 nm and emission wavelength of 460 nm.

[1] = HIV cell fusion assay, HeLa P4 (CCR5/CD4) and CHO-Tat10 (gp160 JRFL) cells, read-out: IC50
[2] = Human immunodeficiency virus 1, HeLaP4

Row | SMILES | IC50 [1] | other results
1 | Cc1ncnc(C)c1C(=O)N1CCC(N2CC[C@@H](N(Cc3cccc(F)c3)C(=O)C3CC(F)(F)C3)C2)CC1 [Example 39] | 227 nM | 
2 | Cc1cccc(C)c1C(=O)N1CCC(N2CC[C@@H](N(Cc3ccccc3)C(=O)C3CC3)C2)CC1 [Example 10] | 1.99 nM | 
3 | Cc1cc[n+]([O-])c(C)c1C(=O)N1CCC(N2CC[C@@H](N(Cc3ccccc3)C(=O)C3CC3)C2)CC1 [Example 54] | 34.3 nM | 
4 | Cc1cccc(C)c1C(=O)N1CCC(N2CC[C@@H](N(Cc3ccccc3)C(=O)c3ccccc3)C2)CC1 [Example 12] | 4.06 nM | 
5 | Cc1cccc(C)c1C(=O)N1CCC(N2CC[C@@H](N(Cc3ccccc3)C(=O)C3CCC3)C2)CC1 [Example 5] | 0.27 nM | 
6 | CCc1noc(C)c1C(=O)N1CCC(C)(N2CC[C@@H](N(Cc3ccccc3)C(=O)C3CC3)C2)CC1 [Example 68] | 61.6 nM | 
7 | O=C(c1c(F)cccc1Cl)N1CCC(N2CC[C@@H](N(Cc3ccccc3)C(=O)C3CC3)C2)CC1 [Example 49] | 28.5 nM | 
8 | Cc1cccc(C)c1C(=O)N1CCC(N2CC[C@@H](N(Cc3ccccc3)C(=O)C(C)C)C2)CC1 [Example 8] | 0.63 nM | 
9 | Cc1cccc(C)c1C(=O)N1CCC(N2CC[C@@H](N(Cc3ccc(F)cc3)C(=O)C3CC3)C2)CC1 [Example 15] | 34.1 nM | 
10 | COCC(=O)N(Cc1ccccc1)[C@@H]1CCN(C2CCN(C(=O)c3ccccc3C(F)(F)F)CC2)C1 [Example 55] | 48.1 nM | 
11 | Cc1cccc(C)c1C(=O)N1CCC(N2CC[C@@H](N(Cc3cccc(F)c3)C(=O)C3CC3)C2)CC1 [Example 9] | 0.8 nM | 
12 | Cc1ncnc(C)c1C(=O)N1CCC(C)(N2CC[C@@H](N(Cc3ccccc3)C(=O)C3CC3)C2)CC1 [Example 63] | 8.18 nM | 
13 | COc1ccc(C(=O)N2CCC(N3CC[C@@H](N(Cc4ccccc4)C(=O)CC4CC4)C3)CC2)cc1C [Example 57] |  | IC50 (HIV cell fusion assay, unit μm printed under the cell, read-out: IC50): 6200 nM
14 | Cc1cccc(C)c1C(=O)N1CCC(N2CC[C@@H](N(Cc3ccccn3)C(=O)C3CC3)C2)CC1 [Example 16] | 237 nM | 
15 | Cc1cccc(C)c1C(=O)N1CCC(C)(N2CC[C@@H](N(Cc3ccccc3)C(=O)C3CC3)C2)CC1 [Example 61, N-benzyl-N-{(3R)-1-[1-(2,6-dimethylbenzoyl)-4-methylpiperidin-4-yl]pyrrolidin-3-yl}cyclopropanecarboxamide] |  | IC50 [2]: 0.23 nM
16 | CCc1cnn(C)c1C(=O)N1CCC(N2CC[C@@H](N(Cc3ccccc3)C(=O)C3CC3)C2)CC1 [Example 43] | 59.8 nM | 
17 | Cc1ncnc(C)c1C(=O)N1CCC(N2CC[C@@H](N(Cc3ccccc3F)C(=O)C3CC(F)(F)C3)C2)CC1 [Example 37] | 62.6 nM | 
18 | Cc1ccc(C(=O)N2CCC(N3CC[C@@H](N(Cc4ccccc4)C(=O)C4CC4)C3)CC2)c(C)c1 [Example 20] | 221 nM | 
19 | Cc1cccc(C)c1C(=O)N1CCC(N2CC[C@@H](N(Cc3ccccc3F)C(=O)C3CC3)C2)CC1 [Example 3] | 0.2 nM | 
20 | COCC(=O)N(Cc1ccccc1)[C@@H]1CCN(C2CCN(C(=O)c3c(C)cccc3C)CC2)C1 [Example 4] | 0.23 nM | 
21 | Cc1ncnc(C)c1C(=O)N1C2CCC1CC(N1CCC(N(Cc3ccccc3)C(=O)C3CC3)C1)C2 (stereo not shown) [Example 71] | 4.27 nM | 
22 | Cc1ccnc(C)c1C(=O)N1CCC(N2CC[C@@H](N(Cc3ccccc3F)C(=O)C(C)C)C2)CC1 [Example 27] | 8.8 nM | 
23 | CC(=O)N(Cc1ccccc1)[C@@H]1CCN(C2CCN(C(=O)c3c(C)ccnc3C)CC2)C1 [Example 29] | 14 nM | 

Row | SMILES | IC50 [1] | other results
24 | CCCNC(=O)N(Cc1ccccc1F)[C@@H]1CCN(C2CCN(C(=O)c3c(C)cccc3C)CC2)C1 [Example 59, N-[(3R)-1-[1-(2,6-dimethylbenzoyl)piperidin-4-yl]pyrrolidin-3-yl]-N-(2-fluorobenzyl)-N′-propylurea] |  | IC50 [2]: 0.02 nM
25 | COCC(=O)N(Cc1cccc(F)c1)[C@@H]1CCN(C2CCN(C(=O)c3c(C)ccnc3C)CC2)C1 [Example 25] | 5.04 nM | 
26 | Cc1cccc(C)c1C(=O)N1CCC(N2CC[C@@H](N(Cc3ccccc3)S(C)(=O)=O)C2)CC1 [Example 58, N-benzyl-N-{(3R)-1-[1-(2,6-dimethylbenzoyl)piperidin-4-yl]pyrrolidin-3-yl}methanesulfonamide] |  | IC50 [2]: 92.5 nM
27 | COCC(=O)N(Cc1ccccc1F)[C@@H]1CCN(C2CCN(C(=O)c3c(F)cccc3Cl)CC2)C1 [Example 50] | 77.7 nM | 
28 | Cc1ccccc1C(=O)N1C2CCC1CC(N1CCC(N(Cc3ccccc3)C(=O)C3CC3)C1)C2 (stereo not shown) [Example 72] | 97.3 nM | 
29 | Cc1cccc(C(=O)N2CCC(N3CC[C@@H](N(Cc4ccccc4)C(=O)CC4CC4)C3)CC2)c1Cl [Example 46] | 107 nM | 
30 | Cc1ncnc(C)c1C(=O)N1CCC(N2CC[C@@H](N(Cc3ccccc3)C(=O)OC(C)C)C2)CC1 [Example 36] | 52 nM | 
31 | Cc1cccc(C)c1C(=O)N1CCC(C)(N2CC[C@@H](N(C=O)Cc3ccccc3F)C2)CC1 [Example 69] | 123 nM | 
32 | COCC(=O)N(Cc1ccccc1F)[C@@H]1CCN(C2(C)CCN(C(=O)c3c(C)ncnc3C)CC2)C1 [Example 64] | 16.6 nM | 
33 | Cc1ncnc(C)c1C(=O)N1CCC(N2CC[C@@H](N(Cc3ccccc3)C(=O)C3CC3)C2)CC1 [Example 35] | 9.9 nM | 
34 | COCCC(=O)N(Cc1ccccc1)[C@@H]1CCN(C2CCN(C(=O)c3c(C)cccc3C)CC2)C1 [Example 13] | 4.83 nM | 
35 | COCC(=O)N(Cc1ccccc1F)[C@@H]1CCN(C2CCN(C(=O)c3c(Cl)cccc3Cl)CC2)C1 [Example 44] | 1.84 nM | 
36 | Cc1cccc(C)c1C(=O)N1CCC(N2CC[C@@H](N(Cc3cccc(Cl)c3)C(=O)C3CC3)C2)CC1 [Example 1, N-(3-chlorobenzyl)-N-{(3R)-1-[1-(2,6-dimethylbenzoyl)piperidin-4-yl]pyrrolidin-3-yl}cyclopropanecarboxamide] |  | IC50 [2]: 0.14 nM
37 | Cc1ccnc(C)c1C(=O)N1CCC(C)(N2CC[C@@H](N(Cc3ccccc3)C(=O)C3CC3)C2)CC1 [Example 62] | 0.34 nM | 
38 | COc1cc(Cl)ccc1C(=O)N1CCC(N2CC[C@@H](N(Cc3ccccc3)C(=O)C3CC3)C2)CC1 [Example 53] | 104 nM | 
39 | Cc1cccc(C)c1C(=O)N1CCC(N2CC[C@@H](N(Cc3ccccc3)C(=O)CC(F)(F)F)C2)CC1 [Example 6] | 0.34 nM | 
40 | Cc1ncnc(C)c1C(=O)N1CCC(C)(N2CC[C@@H](N(Cc3ccccc3)C(=O)C3CC(F)(F)C3)C2)CC1 [Example 67] | 44.3 nM | 
41 | COCC(=O)N(Cc1ccccc1F)[C@@H]1CCN(C2(C)CCN(C(=O)c3ccc(F)cc3Cl)CC2)C1 [Example 66] | 28.5 nM | 
42 | Cc1ncnc(C)c1C(=O)N1CCC(N2CC[C@@H](N(Cc3ccccc3)C(=O)C3CC(F)(F)C3)C2)CC1 [Example 34] | 8.51 nM | 
43 | Cc1ccnc(C)c1C(=O)N1CCC(N2CC[C@@H](N(Cc3ccccc3)C(=O)C3CC(F)(F)C3)C2)CC1 [Example 22] | 1.21 nM | 
44 | COCC(=O)N(Cc1cccc(F)c1F)[C@@H]1CCN(C2CCN(C(=O)c3c(C)ccnc3C)CC2)C1 [Example 26] | 6.51 nM | 
45 | Cc1ccnc(C)c1C(=O)N1CCC(N2CC[C@@H](N(Cc3cccc(F)c3)C(=O)C(C)C)C2)CC1 [Example 33] | 42.2 nM | 
46 | Cc1cc[n+]([O-])c(C)c1C(=O)N1CCC(C)(N2CC[C@@H](N(Cc3ccccc3)C(=O)C3CC3)C2)CC1 [Example 65] | 26.5 nM | 
